Laboratory results published in the supplement of paper PMC10307832.

What was measured:
Experiment in all cases: relative viability (nuclei count vs DMSO), 5 days (fraction); higher = more cells survive
[1] = test system: NCI-H1651
Procedure, shortened: (§1)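 One day after seeding in 1536-well plates, lung cancer cell lines were dosed by pin tool. Dosing was either single-drug or a fixed anchor-drug dose plus five library-drug doses (not always all listed) in √10 steps. After 5 days, nuclei were stained in one fix-and-stain step and counted on 4× images, and relative viability is the nuclei count of treated wells over that of vehicle wells, given as the median of duplicate plates.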

[2] = test system: NCI-H1623
Procedure, shortened: as §1

[3] = test system: SK-MES-1
Procedure, shortened: as §1

[4] = test system: A549
Procedure, shortened: as §1

[5] = test system: SW 1573
Procedure, shortened: as §1

[6] = test system: ChaGo-K-1
Procedure, shortened: as §1

[7] = test system: COR-L23
Procedure, shortened: as §1

[8] = test system: NCI-H1437
Procedure, shortened: as §1

[9] = test system: ABC-1
Procedure, shortened: as §1

Cc1sc2c(c1C)C(c1ccc(Cl)cc1)=N[C@@H](CC(=O)OC(C)(C)C)c1nnc(C)n1-2 [JQ1] + N=C(N)NC(=N)NCCc1ccccc1 [Phenformin] (partner 250 µM)
relative viability ([1]; first compound 0.04 µM): 0.265
relative viability ([1]; first compound 0.1265 µM): 0.249
relative viability ([1]; first compound 0.4 µM): 0.305
relative viability ([1]; first compound 1.265 µM): 0.245
relative viability ([1]; first compound 4 µM): 0.241
relative viability ([2]; first compound 0.04 µM): 0.597
relative viability ([2]; first compound 0.1265 µM): 0.628
relative viability ([2]; first compound 0.4 µM): 0.547
relative viability ([2]; first compound 1.265 µM): 0.486
relative viability ([2]; first compound 4 µM): 0.406
relative viability ([3]; first compound 0.04 µM): 0.672
relative viability ([3]; first compound 0.1265 µM): 0.496
relative viability ([3]; first compound 0.4 µM): 0.428
relative viability ([3]; first compound 1.265 µM): 0.307
relative viability ([3]; first compound 4 µM): 0.199
relative viability ([4]; first compound 0.04 µM): 0.171
relative viability ([4]; first compound 0.1265 µM): 0.137
relative viability ([4]; first compound 0.4 µM): 0.14
relative viability ([4]; first compound 1.265 µM): 0.182
relative viability ([4]; first compound 4 µM): 0.21
relative viability ([5]; first compound 0.04 µM): 0.331
relative viability ([5]; first compound 0.1265 µM): 0.304
relative viability ([5]; first compound 0.4 µM): 0.402
relative viability ([5]; first compound 1.265 µM): 0.231
relative viability ([5]; first compound 4 µM): 0.233
relative viability ([6]; first compound 0.04 µM): 0.436
relative viability ([6]; first compound 0.1265 µM): 0.495
relative viability ([6]; first compound 0.4 µM): 0.401
relative viability ([6]; first compound 1.265 µM): 0.324
relative viability ([6]; first compound 4 µM): 0.286
relative viability ([7]; first compound 0.04 µM): 0.385
relative viability ([7]; first compound 0.1265 µM): 0.351
relative viability ([7]; first compound 0.4 µM): 0.428
relative viability ([7]; first compound 1.265 µM): 0.222
relative viability ([7]; first compound 4 µM): 0.227
relative viability ([8]; first compound 0.04 µM): 0.274
relative viability ([8]; first compound 0.1265 µM): 0.267
relative viability ([8]; first compound 0.4 µM): 0.279
relative viability ([8]; first compound 1.265 µM): 0.222
relative viability ([8]; first compound 4 µM): 0.271
relative viability ([9]; first compound 0.04 µM): 0.238
relative viability ([9]; first compound 0.1265 µM): 0.282
relative viability ([9]; first compound 0.4 µM): 0.225
relative viability ([9]; first compound 1.265 µM): 0.227
relative viability ([9]; first compound 4 µM): 0.232

Nc1ccn([C@@H]2O[C@H](CO)[C@@H](O)[C@@H]2O)c(=O)n1 [Cytarabine] + N=C(N)NC(=N)NCCc1ccccc1 [Phenformin] (partner 250 µM)
relative viability ([1]; first compound 0.005 µM): 0.304
relative viability ([1]; first compound 0.01581 µM): 0.346
relative viability ([1]; first compound 0.05 µM): 0.319
relative viability ([1]; first compound 0.1581 µM): 0.2
relative viability ([1]; first compound 0.5 µM): 0.18
relative viability ([2]; first compound 0.005 µM): 0.432
relative viability ([2]; first compound 0.01581 µM): 0.396
relative viability ([2]; first compound 0.05 µM): 0.357
relative viability ([2]; first compound 0.1581 µM): 0.402
relative viability ([2]; first compound 0.5 µM): 0.431
relative viability ([3]; first compound 0.005 µM): 0.44
relative viability ([3]; first compound 0.01581 µM): 0.389
relative viability ([3]; first compound 0.05 µM): 0.212
relative viability ([3]; first compound 0.1581 µM): 0.206
relative viability ([3]; first compound 0.5 µM): 0.178
relative viability ([4]; first compound 0.005 µM): 0.104
relative viability ([4]; first compound 0.01581 µM): 0.127
relative viability ([4]; first compound 0.05 µM): 0.106
relative viability ([4]; first compound 0.1581 µM): 0.0512
relative viability ([4]; first compound 0.5 µM): 0.0301
relative viability ([5]; first compound 0.005 µM): 0.342
relative viability ([5]; first compound 0.01581 µM): 0.287
relative viability ([5]; first compound 0.05 µM): 0.218
relative viability ([5]; first compound 0.1581 µM): 0.131
relative viability ([5]; first compound 0.5 µM): 0.109
relative viability ([6]; first compound 0.005 µM): 0.421
relative viability ([6]; first compound 0.01581 µM): 0.342
relative viability ([6]; first compound 0.05 µM): 0.323
relative viability ([6]; first compound 0.1581 µM): 0.176
relative viability ([6]; first compound 0.5 µM): 0.181
relative viability ([7]; first compound 0.005 µM): 0.328
relative viability ([7]; first compound 0.01581 µM): 0.325
relative viability ([7]; first compound 0.05 µM): 0.3
relative viability ([7]; first compound 0.1581 µM): 0.146
relative viability ([7]; first compound 0.5 µM): 0.137
relative viability ([8]; first compound 0.005 µM): 0.199
relative viability ([8]; first compound 0.01581 µM): 0.183
relative viability ([8]; first compound 0.05 µM): 0.17
relative viability ([8]; first compound 0.5 µM): 0.105
relative viability ([9]; first compound 0.005 µM): 0.238
relative viability ([9]; first compound 0.01581 µM): 0.211
relative viability ([9]; first compound 0.05 µM): 0.265
relative viability ([9]; first compound 0.1581 µM): 0.223
relative viability ([9]; first compound 0.5 µM): 0.174
